Assay results taken from US8962641B2, “Pyrimidine-substituted pyrrolidine derivatives, pharmaceutical compositions and uses thereof” (Boehringer Ingelheim International GmbH, priority 2013, dated 2015).

Molecular target: human ACC2 (Homo sapiens (Human), UniProt O00763)
Assay: ACC2 assay (spectrophotometric 384 well assay, NADH-linked kinetic method)
Type: biochemical
Conditions: hACC2 construct lacking 128 N-terminal amino acids; coupled lactate dehydrogenase/pyruvate kinase reaction, 340 nm, 25° C.
Procedure, shortened: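 Baculovirus/insect-cell human ACC2, anion-exchange purified; ADP formation coupled to pyruvate kinase/lactate dehydrogenase, NADH loss followed at 340 nm, 25° C, 15 min. Final 200 μM NADH and acetyl-CoA, 500 uM ATP; vehicle and no-acetyl-CoA wells set 100% and 0%.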

Chain of human ACC2 (O00763 129-2458): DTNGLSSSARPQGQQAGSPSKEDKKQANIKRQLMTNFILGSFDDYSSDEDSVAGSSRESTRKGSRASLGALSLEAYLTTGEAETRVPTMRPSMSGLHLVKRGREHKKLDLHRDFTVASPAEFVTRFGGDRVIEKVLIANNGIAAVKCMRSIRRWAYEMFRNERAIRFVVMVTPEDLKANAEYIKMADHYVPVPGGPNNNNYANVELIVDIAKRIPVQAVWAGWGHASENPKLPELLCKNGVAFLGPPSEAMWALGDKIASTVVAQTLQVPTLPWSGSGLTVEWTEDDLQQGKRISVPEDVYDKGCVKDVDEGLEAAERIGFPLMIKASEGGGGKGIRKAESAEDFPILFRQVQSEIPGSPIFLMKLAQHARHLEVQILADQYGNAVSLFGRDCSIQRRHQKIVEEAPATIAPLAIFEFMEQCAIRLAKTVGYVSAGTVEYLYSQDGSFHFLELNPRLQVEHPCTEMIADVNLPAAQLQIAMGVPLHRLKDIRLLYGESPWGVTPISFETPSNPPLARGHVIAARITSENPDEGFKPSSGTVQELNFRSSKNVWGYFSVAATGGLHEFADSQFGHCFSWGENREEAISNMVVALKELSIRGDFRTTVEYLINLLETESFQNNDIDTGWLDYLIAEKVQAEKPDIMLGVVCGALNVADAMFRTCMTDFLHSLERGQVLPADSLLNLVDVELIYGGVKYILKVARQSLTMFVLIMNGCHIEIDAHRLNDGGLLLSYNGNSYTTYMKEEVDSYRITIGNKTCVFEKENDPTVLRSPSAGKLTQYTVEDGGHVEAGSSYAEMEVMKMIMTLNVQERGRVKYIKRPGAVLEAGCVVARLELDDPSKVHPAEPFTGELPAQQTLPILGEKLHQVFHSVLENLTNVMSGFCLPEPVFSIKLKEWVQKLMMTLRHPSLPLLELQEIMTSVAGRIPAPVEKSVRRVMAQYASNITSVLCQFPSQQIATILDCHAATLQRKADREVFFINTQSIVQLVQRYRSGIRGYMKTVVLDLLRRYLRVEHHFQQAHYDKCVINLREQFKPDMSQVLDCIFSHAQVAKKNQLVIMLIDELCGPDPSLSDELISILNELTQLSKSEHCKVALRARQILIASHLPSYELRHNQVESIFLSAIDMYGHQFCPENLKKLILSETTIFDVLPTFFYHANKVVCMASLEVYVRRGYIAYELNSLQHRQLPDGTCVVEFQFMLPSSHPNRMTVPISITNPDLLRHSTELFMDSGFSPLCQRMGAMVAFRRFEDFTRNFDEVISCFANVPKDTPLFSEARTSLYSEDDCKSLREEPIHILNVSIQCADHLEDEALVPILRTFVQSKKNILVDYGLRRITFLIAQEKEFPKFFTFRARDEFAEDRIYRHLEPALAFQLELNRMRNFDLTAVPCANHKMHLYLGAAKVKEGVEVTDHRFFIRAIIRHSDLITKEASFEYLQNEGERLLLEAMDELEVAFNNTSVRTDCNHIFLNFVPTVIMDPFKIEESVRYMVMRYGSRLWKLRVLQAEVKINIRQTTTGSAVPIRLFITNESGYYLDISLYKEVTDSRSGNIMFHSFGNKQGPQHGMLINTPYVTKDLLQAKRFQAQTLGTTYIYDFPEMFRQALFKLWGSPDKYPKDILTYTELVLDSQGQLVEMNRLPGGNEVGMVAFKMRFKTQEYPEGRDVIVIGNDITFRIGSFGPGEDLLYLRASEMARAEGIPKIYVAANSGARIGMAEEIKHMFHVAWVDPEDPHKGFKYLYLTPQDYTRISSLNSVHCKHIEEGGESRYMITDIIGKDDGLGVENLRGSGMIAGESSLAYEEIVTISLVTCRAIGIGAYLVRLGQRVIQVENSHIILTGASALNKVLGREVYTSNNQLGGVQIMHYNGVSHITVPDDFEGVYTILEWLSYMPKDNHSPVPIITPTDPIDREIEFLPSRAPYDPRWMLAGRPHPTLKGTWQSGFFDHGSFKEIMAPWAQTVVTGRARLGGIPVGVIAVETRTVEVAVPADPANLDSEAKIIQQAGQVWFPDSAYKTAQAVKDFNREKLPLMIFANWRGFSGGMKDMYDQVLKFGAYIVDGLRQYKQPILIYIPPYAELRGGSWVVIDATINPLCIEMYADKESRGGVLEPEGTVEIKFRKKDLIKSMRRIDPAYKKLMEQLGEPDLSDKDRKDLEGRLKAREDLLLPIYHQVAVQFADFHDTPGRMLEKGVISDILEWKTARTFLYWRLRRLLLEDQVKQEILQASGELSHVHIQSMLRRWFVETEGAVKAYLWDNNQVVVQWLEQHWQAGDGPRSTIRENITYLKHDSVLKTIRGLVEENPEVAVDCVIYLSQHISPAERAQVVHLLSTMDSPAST

CC(=O)N[C@@H](C)c1ccc(O[C@@H]2CCN(c3ncnc(N4CC(C)C4)c3F)C2)cc1 [Example 8.200]
IC50: 354 nM

CC(=O)N[C@@H](C)c1ccc(O[C@@H]2CCN(c3ncnc(N4CCC(CO)C4)c3F)C2)cc1 (stereo partly drawn) [Example 8.201]
IC50: 294 nM

CC(=O)N[C@@H](C)c1ccc(O[C@@H]2CCN(c3ncnc(N4CCC(CO)C4)c3F)C2)cc1 (stereo partly drawn) [Example 8.202]
IC50: 721 nM

CC(=O)N[C@@H](C)c1ccc(O[C@@H]2CCN(c3ccnc(N(C)C[C@@H]4CCCO4)n3)C2)cc1 [Example 8.203]
IC50: 334 nM

COC[C@H](C)N(C)c1nccc(N2CC[C@@H](Oc3ccc([C@H](C)NC(C)=O)cc3)C2)n1 [Example 8.204]
IC50: 945 nM

CC(=O)N[C@@H](C)c1ccc(O[C@@H]2CCN(c3nc(N(C)CCO)ncc3F)C2)cc1 [Example 8.205]
IC50: 607 nM

CC(=O)N[C@@H](C)c1ccc(O[C@@H]2CCN(c3ccnc(N(C)CCC(F)(F)F)n3)C2)cc1 [Example 8.206]
IC50: 75 nM

CC(=O)N[C@@H](C)c1ccc(O[C@@H]2CCN(c3ccnc(N4CCC(F)(F)CC4)n3)C2)cc1 [Example 8.207]
IC50: 99 nM

CC(=O)N[C@@H](C)c1ccc(O[C@@H]2CCN(c3ccnc(N4CCCC(F)(F)C4)n3)C2)cc1 [Example 8.208]
IC50: 172 nM

CC(=O)N[C@@H](C)c1ccc(O[C@@H]2CCN(c3nc(N4CCOC(C)(C)C4)ncc3Cl)C2)cc1 [Example 8.209]
IC50: 351 nM

CC(=O)N[C@@H](C)c1ccc(O[C@@H]2CCN(c3nc(N4CCOCC4C)ncc3Cl)C2)cc1 (stereo partly drawn) [Example 8.210]
IC50: 714 nM

CC(=O)N[C@@H](C)c1ccc(O[C@@H]2CCN(c3nc(N(CCO)C4CC4)ncc3Cl)C2)cc1 [Example 8.211]
IC50: 506 nM

CC(=O)N[C@@H](C)c1ccc(O[C@@H]2CCN(c3ncnc(N4CCc5nocc5C4)c3F)C2)cc1 [Example 8.212]
IC50: 998 nM

COC1CCN(c2ncnc(N3CC[C@@H](Oc4ccc([C@H](C)NC(C)=O)cc4)C3)c2F)CC1 [Example 8.213]
IC50: 360 nM

CC(=O)N[C@@H](C)c1ccc(O[C@@H]2CCN(c3ccnc(N4CCC(C)(O)C4)n3)C2)cc1 (stereo partly drawn) [Example 8.214]
IC50: 865 nM

CC(=O)N[C@@H](C)c1ccc(O[C@@H]2CCN(c3nc(N(C)CCOC(C)(C)C)ncc3F)C2)cc1 [Example 8.215]
IC50: 719 nM

CC(=O)N[C@@H](C)c1ccc(O[C@@H]2CCN(c3nc(N4CCCOCC4)ncc3F)C2)cc1 [Example 8.216]
IC50: 125 nM

CC(=O)N[C@@H](C)c1ccc(O[C@@H]2CCN(c3nc(N4CC(F)(F)C(F)(F)C4)ncc3F)C2)cc1 [Example 8.217]
IC50: 145 nM

CC(=O)N[C@@H](C)c1ccc(O[C@@H]2CCN(c3nc(N4CCCC(F)(F)C4)ncc3F)C2)cc1 [Example 8.218]
IC50: 140 nM

CC(=O)N[C@@H](C)c1ccc(O[C@@H]2CCN(c3nc(N4CC(C)C4)ncc3Cl)C2)cc1 [Example 8.219]
IC50: 355 nM

CC(=O)N[C@@H](C)c1ccc(O[C@@H]2CCN(c3nc(N4CCCOCC4)ncc3Cl)C2)cc1 [Example 8.220]
IC50: 182 nM

CC(=O)N[C@@H](C)c1ccc(O[C@@H]2CCN(c3nc(N(C)C4CCOCC4)ncc3Cl)C2)cc1 [Example 8.221]
IC50: 269 nM

CC(=O)N[C@@H](C)c1ccc(O[C@@H]2CCN(c3nc(N4CC(F)(F)C(F)(F)C4)ncc3Cl)C2)cc1 [Example 8.222]
IC50: 150 nM

CC(=O)N[C@@H](C)c1ccc(O[C@@H]2CCN(c3nc(N(C)CC(C)C)ncc3Cl)C2)cc1 [Example 8.223]
IC50: 103 nM

CC(=O)N[C@@H](C)c1ccc(O[C@@H]2CCN(c3nc(N4CCOC(C)(C)C4)ncc3F)C2)cc1 [Example 8.224]
IC50: 170 nM

COC[C@@H](C)N(C)c1ncc(Cl)c(N2CC[C@@H](Oc3ccc([C@H](C)NC(C)=O)cc3)C2)n1 [Example 8.225]
IC50: 199 nM

CC(=O)N[C@@H](C)c1ccc(O[C@@H]2CCN(c3nc(N4CCC5(CC5)C4)ncc3F)C2)cc1 [Example 8.226]
IC50: 52 nM

COC[C@H]1CCCN1c1nccc(N2CC[C@@H](Oc3ccc([C@H](C)NC(C)=O)cc3)C2)n1 [Example 8.228]
IC50: 619 nM

COC1CCN(c2nccc(N3CC[C@@H](Oc4ccc([C@H](C)NC(C)=O)cc4)C3)n2)CC1 [Example 8.229]
IC50: 641 nM

CC(=O)N[C@@H](C)c1ccc(O[C@@H]2CCN(c3ccnc(N4CC[C@H](F)C4)n3)C2)cc1 [Example 8.230]
IC50: 485 nM

CC(=O)N[C@@H](C)c1ccc(O[C@@H]2CCN(c3ncnc(N4CC(F)(F)C(F)(F)C4)c3F)C2)cc1 [Example 8.231]
IC50: 127 nM

CC(=O)N[C@@H](C)c1ccc(O[C@@H]2CCN(c3ncnc(N(C)C4CCC4)c3F)C2)cc1 [Example 8.232]
IC50: 60 nM

CC(=O)N[C@@H](C)c1ccc(O[C@@H]2CCN(c3ncnc(N4CCCC4C)c3F)C2)cc1 (stereo partly drawn) [Example 8.233]
IC50: 153 nM

CO[C@@H]1CCN(c2ncnc(N3CC[C@@H](Oc4ccc([C@H](C)NC(C)=O)cc4)C3)c2F)C1 [Example 8.234]
IC50: 898 nM

CC(=O)N[C@@H](C)c1ccc(O[C@@H]2CCN(c3ncnc(N4CCC5(CC5)C4)c3F)C2)cc1 [Example 8.235]
IC50: 45 nM

CC(=O)N[C@@H](C)c1ccc(O[C@@H]2CCN(c3ncnc(N(C)C4CCCOC4)c3F)C2)cc1 (stereo partly drawn) [Example 8.236]
IC50: 314 nM

CC(=O)N[C@@H](C)c1ccc(O[C@@H]2CCN(c3ncnc(N4CC(C)(O)C4)c3F)C2)cc1 [Example 8.237]
IC50: 749 nM

CC(=O)N[C@@H](C)c1ccc(O[C@@H]2CCN(c3nc(N4CCc5nocc5C4)ncc3F)C2)cc1 [Example 8.238]
IC50: 534 nM

CC(=O)N[C@@H](C)c1ccc(O[C@@H]2CCN(c3nc(N(C)CC(C)O)ncc3F)C2)cc1 (stereo partly drawn) [Example 8.239]
IC50: 487 nM

CCN(CCO)c1ncc(F)c(N2CC[C@@H](Oc3ccc([C@H](C)NC(C)=O)cc3)C2)n1 [Example 8.240]
IC50: 215 nM

CC(=O)N[C@@H](C)c1ccc(O[C@@H]2CCN(c3nc(N4CC[C@H](F)C4)ncc3Cl)C2)cc1 [Example 8.241]
IC50: 594 nM

COCCCN(C)c1nccc(N2CC[C@@H](Oc3ccc([C@H](C)NC(C)=O)cc3)C2)n1 [Example 8.242]
IC50: 459 nM

CC(=O)N[C@@H](C)c1ccc(O[C@@H]2CCN(c3ccnc(N4CCCC4(C)C)n3)C2)cc1 [Example 8.243]
IC50: 559 nM

CC(=O)N[C@@H](C)c1ccc(O[C@@H]2CCN(c3nc(N4CC=CC4)ncc3F)C2)cc1 [Example 8.244]
IC50: 165 nM

CC(=O)N[C@@H](C)c1ccc(O[C@@H]2CCN(c3nc(N4CC[C@H](O)C4)ncc3F)C2)cc1 [Example 8.245]
IC50: 937 nM

CC(=O)N[C@@H](C)c1ccc(O[C@@H]2CCN(c3ccnc(N4CCc5nocc5C4)n3)C2)cc1 [Example 8.246]
IC50: 680 nM

CC(=O)N[C@@H](C)c1ccc(O[C@@H]2CCN(c3nc(N(C)CCC(F)(F)F)ncc3Cl)C2)cc1 [Example 8.247]
IC50: 110 nM

CC(=O)N[C@@H](C)c1ccc(O[C@@H]2CCN(c3nc(N(C)CCO)ncc3Cl)C2)cc1 [Example 8.248]
IC50: 1040 nM

CC(=O)N[C@@H](C)c1ccc(O[C@@H]2CCN(c3ncnc(N4CCCC4(C)C)c3F)C2)cc1 [Example 8.250]
IC50: 358 nM

CC(=O)N[C@@H](C)c1ccc(O[C@@H]2CCN(c3ncnc(N4CCC(F)(F)CC4)c3F)C2)cc1 [Example 8.251]
IC50: 97 nM

COC1CCCN(c2ncnc(N3CC[C@@H](Oc4ccc([C@H](C)NC(C)=O)cc4)C3)c2F)C1 (stereo partly drawn) [Example 8.252]
IC50: 1060 nM

CC(=O)N[C@@H](C)c1ccc(O[C@@H]2CCN(c3ccnc(N(C)C4CCC4)n3)C2)cc1 [Example 8.253]
IC50: 79 nM

CC(=O)N[C@@H](C)c1ccc(O[C@@H]2CCN(c3nc(N4CCCC4C)ncc3F)C2)cc1 (stereo partly drawn) [Example 8.254]
IC50: 60 nM

CC(=O)N[C@@H](C)c1ccc(O[C@@H]2CCN(c3nc(N(C)C4CCCOC4)ncc3Cl)C2)cc1 (stereo partly drawn) [Example 8.255]
IC50: 303 nM

CC(=O)N[C@@H](C)c1ccc(O[C@@H]2CCN(c3nc(N4CCC(C)(O)C4)ncc3Cl)C2)cc1 (stereo partly drawn) [Example 8.256]
IC50: 303 nM

CC(=O)N[C@@H](C)c1ccc(O[C@@H]2CCN(c3nc(N4CCOC(C(F)(F)F)C4)ncc3F)C2)cc1 (stereo partly drawn) [Example 8.257]
IC50: 121 nM

CC(=O)N[C@@H](C)c1ccc(O[C@@H]2CCN(c3nc(N(C)C[C@@H]4CCCO4)ncc3Cl)C2)cc1 [Example 8.258]
IC50: 105 nM

CO[C@H]1CCN(c2ncc(F)c(N3CC[C@@H](Oc4ccc([C@H](C)NC(C)=O)cc4)C3)n2)C1 [Example 8.259]
IC50: 173 nM

CCN(c1nccc(N2CC[C@@H](Oc3ccc([C@H](C)NC(C)=O)cc3)C2)n1)C(C)C [Example 8.260]
IC50: 180 nM

CC(=O)N[C@@H](C)c1ccc(O[C@@H]2CCN(c3nc(N4CCC(F)(F)CC4)ncc3F)C2)cc1 [Example 8.261]
IC50: 96 nM

COC[C@@H]1CCCN1c1ncc(F)c(N2CC[C@@H](Oc3ccc([C@H](C)NC(C)=O)cc3)C2)n1 [Example 8.262]
IC50: 129 nM

CCN(CCO)c1nccc(N2CC[C@@H](Oc3ccc([C@H](C)NC(C)=O)cc3)C2)n1 [Example 8.263]
IC50: 698 nM

CC(=O)N[C@@H](C)c1ccc(O[C@@H]2CCN(c3ccnc(N4CCCOCC4)n3)C2)cc1 [Example 8.264]
IC50: 282 nM

CC(=O)N[C@@H](C)c1ccc(O[C@@H]2CCN(c3ccnc(N4CC[C@H](F)C4)n3)C2)cc1 [Example 8.265]
IC50: 379 nM

CC(=O)N[C@@H](C)c1ccc(O[C@@H]2CCN(c3nc(N(C)CC(C)(C)O)ncc3Cl)C2)cc1 [Example 8.266]
IC50: 995 nM

CC(=O)N[C@@H](C)c1ccc(O[C@@H]2CCN(c3nc(N(C)C4CCC4)ncc3Cl)C2)cc1 [Example 8.267]
IC50: 64 nM

CC(=O)N[C@@H](C)c1ccc(O[C@@H]2CCN(c3ncnc(N(C)CC(C)C)c3F)C2)cc1 [Example 8.268]
IC50: 198 nM

CC(=O)N[C@@H](C)c1ccc(O[C@@H]2CCN(c3ncnc(N4CCC(C)(O)C4)c3F)C2)cc1 (stereo partly drawn) [Example 8.269]
IC50: 188 nM

COCCCN(C)c1ncnc(N2CC[C@@H](Oc3ccc([C@H](C)NC(C)=O)cc3)C2)c1F [Example 8.270]
IC50: 455 nM
